Test results taken from US20240158446A1, “CYCLIC COMPOUND HAVING SELECTIVE INHIBITORY ACTION ON KRAS OVER HRAS AND NRAS” (CHUGAI SEIYAKU KABUSHIKI KAISHA, priority 2021, published 2024).

Key:
[1] = target: GDP-bound KRAS wild-type protein (Homo sapiens, UniProt P01116); experiment: Binding to KRAS by surface plasmon resonance (SPR), Single Cycle Kinetics; details: SPR, Single Cycle Kinetics, GDP-bound KRAS wild-type protein; read-out: KRAS KD
[2] = target: GDP-bound NRAS wild-type protein (Homo sapiens, UniProt P01111); experiment: Binding to NRAS by surface plasmon resonance (SPR), Single Cycle Kinetics; details: SPR, GDP-bound NRAS wild-type protein vs GDP-bound KRAS wild-type protein
[3] = target: GDP-bound HRAS wild-type protein (Homo sapiens, UniProt P01112); experiment: Binding to HRAS by surface plasmon resonance (SPR), Single Cycle Kinetics; details: SPR, GDP-bound HRAS wild-type protein vs GDP-bound KRAS wild-type protein
[4] = test system: human lung cancer strain NCI-H441;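 further: cell proliferation inhibition after four days measured by CellTiter-Glo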

Chain of GDP-bound NRAS wild-type protein (P01111 whole entry): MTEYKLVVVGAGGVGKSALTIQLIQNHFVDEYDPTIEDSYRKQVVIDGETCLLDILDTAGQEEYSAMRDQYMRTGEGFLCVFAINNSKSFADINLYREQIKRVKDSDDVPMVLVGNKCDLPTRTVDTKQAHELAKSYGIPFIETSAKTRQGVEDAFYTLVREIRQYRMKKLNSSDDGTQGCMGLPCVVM
Chain of GDP-bound KRAS wild-type protein (P01116 whole entry): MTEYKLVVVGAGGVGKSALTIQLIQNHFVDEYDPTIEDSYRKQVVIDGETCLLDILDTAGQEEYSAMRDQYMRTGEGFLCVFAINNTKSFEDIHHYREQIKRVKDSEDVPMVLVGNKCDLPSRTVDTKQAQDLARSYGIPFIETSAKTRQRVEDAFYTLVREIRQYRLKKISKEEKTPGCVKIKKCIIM
Chain of GDP-bound HRAS wild-type protein (P01112 whole entry): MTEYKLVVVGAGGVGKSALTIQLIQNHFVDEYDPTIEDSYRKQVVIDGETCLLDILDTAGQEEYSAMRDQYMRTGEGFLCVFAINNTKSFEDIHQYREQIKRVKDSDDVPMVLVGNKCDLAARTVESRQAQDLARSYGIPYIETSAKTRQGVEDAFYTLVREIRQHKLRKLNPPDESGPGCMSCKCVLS

Row | Compound | Kd [1] [nM] | IC50 [4] [nM] | NRAS/KRAS (ratio of KD value for NRAS to KD value for KRAS) [2] | HRAS/KRAS (ratio of KD value for HRAS to KD value for KRAS) [3]
1 | CCO[C@@H]1C[C@H]2C(=O)NC3(CC(C)(C)C3)C(=O)N(C)[C@@H](C(CC)CC)C(=O)N(C)[C@H](C(=O)N(C)C)CC(=O)N(C)[C@@H](COC)C(=O)N[C@@H]([C@@H](C)CC)C(=O)N(C)CC(=O)N(C)[C@H]3C/C=C\CCN(C3=O)[C@@H](CC3CCC(F)(F)CC3)C(=O)N(C)CC(=O)N[C@@H](CCc3ccc(C(F)(F)F)c(OC)c3)C(=O)N2C1 [PP2438] | 0.64 | 41.4 | A (a compound having 10 or more and less than 20 is denoted as A) | A (a compound having 10 or more and less than 20 is denoted as A)
2 | CCOC[C@H]1C(=O)N[C@@H]([C@@H](C)CC)C(=O)N(C)CC(=O)N(C)[C@H]2C/C=C\CCN(C2=O)[C@@H](Cc2ccc(C)cc2)C(=O)N(C)CC(=O)N[C@@H](CCc2cc(F)c(C(F)(F)F)c(F)c2)C(=O)N2C[C@@H](C)C[C@H]2C(=O)NC2(CC(C)(C)C2)C(=O)N(C)[C@@H](C2CCCC2)C(=O)N(C)[C@H](C(=O)N(C)C)CC(=O)N1C [PP2439] | 0.12 | 6.6 | A (a compound having 10 or more and less than 20 is denoted as A) | A (a compound having 10 or more and less than 20 is denoted as A)
3 | CCO[C@@H]1C[C@H]2C(=O)NC3(CC(C)(C)C3)C(=O)N(C)[C@@H](C(CC)CC)C(=O)N(C)[C@H](C(=O)N(C)C)CC(=O)N(C)[C@@H](COC)C(=O)N[C@@H]([C@@H](C)CC)C(=O)N(C)CC(=O)N(C)[C@H]3C/C=C\CCN(C3=O)[C@@H](CC3CCC(F)(F)CC3)C(=O)N(C)CC(=O)N[C@@H](CCc3cc(F)c(C(F)(F)F)c(F)c3)C(=O)N2C1 [PP2440] | 0.44 | 20.1 | A (a compound having 10 or more and less than 20 is denoted as A) | A (a compound having 10 or more and less than 20 is denoted as A)
4 | CC[C@H](C)[C@@H]1NC(=O)[C@H](COC)N(C)C(=O)C[C@@H](C(=O)N(CC)CC)N(C)C(=O)[C@H](C2CCCC2)N(C)C(=O)C2(CC(C)(C)C2)NC(=O)[C@@H]2C[C@H](C)CN2C(=O)[C@H](CCc2ccc(C(F)(F)F)c(OC)c2)NC(=O)CN(C)C(=O)[C@H](Cc2ccc(C)cc2)N2CC/C=C\C[C@@H](C2=O)N(C)C(=O)CN(C)C1=O [PP2441] | 0.29 | 22.9 | AA (a compound having 20 or more is denoted as AA) | A (a compound having 10 or more and less than 20 is denoted as A)
5 | CCC(CC)[C@H]1C(=O)N(C)[C@H](C(=O)N(C)C)CC(=O)N(C)[C@@H](COC)C(=O)N[C@@H]([C@@H](C)CC)C(=O)N(C)CC(=O)N(C)[C@H]2C/C=C\CCN(C2=O)[C@@H](CC2CCC(F)(F)CC2)C(=O)N(C)CC(=O)N[C@@H](CCc2ccc(C(F)(F)F)c(OC)c2)C(=O)N2C[C@@H](C)C[C@H]2C(=O)NC2(CC(C)(C)C2)C(=O)N1C [PP2442] | 0.97 | 79.7 | A (a compound having 10 or more and less than 20 is denoted as A) | A (a compound having 10 or more and less than 20 is denoted as A)
6 | CCO[C@@H]1C[C@H]2C(=O)NC3(CC(C)(C)C3)C(=O)N(C)[C@@H](C(CC)CC)C(=O)N(C)[C@H](C(=O)N(C)C)CC(=O)N(C)[C@@H](COC)C(=O)N[C@@H]([C@@H](C)CC)C(=O)N(C)CC(=O)N(C)[C@H]3C/C=C\CCN(C3=O)[C@@H](CC3CCC(F)(F)CC3)C(=O)N(C)CC(=O)N[C@@H](CCc3ccc(C(F)(F)F)c(Cl)c3)C(=O)N2C1 [PP2444] | 0.59 | 32.3 | A (a compound having 10 or more and less than 20 is denoted as A) | A (a compound having 10 or more and less than 20 is denoted as A)
7 | CCOC[C@H]1C(=O)N[C@@H]([C@@H](C)CC)C(=O)N(C)CC(=O)N(C)[C@H]2C/C=C\CCN(C2=O)[C@@H](Cc2ccc(C)cc2)C(=O)N(C)CC(=O)N[C@@H](CCc2ccc(C(F)(F)F)c(OC)c2)C(=O)N2C[C@H](OCC)C[C@H]2C(=O)NC2(CC(C)(C)C2)C(=O)N(C)[C@@H](C2CCCC2)C(=O)N(C)[C@H](C(=O)N(C)CC)CC(=O)N1C [PP2445] | 0.14 | 11.7 | A (a compound having 10 or more and less than 20 is denoted as A) | B (a compound having 3 or more and less than 10 is denoted as B)
8 | CCOC[C@H]1C(=O)N[C@@H]([C@@H](C)CC)C(=O)N(C)CC(=O)N(C)[C@H]2C/C=C\CCN(C2=O)[C@@H](CC2CCC(F)(F)CC2)C(=O)N(C)CC(=O)N[C@@H](CCc2ccc(C(F)(F)F)c(OC)c2)C(=O)N2C[C@H](OCC)C[C@H]2C(=O)NC2(CC(C)(C)C2)C(=O)N(C)[C@@H](C(CC)CC)C(=O)N(C)[C@H](C(=O)N(C)C)CC(=O)N1C [PP2446] | 0.81 | 124 | A (a compound having 10 or more and less than 20 is denoted as A) | A (a compound having 10 or more and less than 20 is denoted as A)

Now from value to compound, other results behind:

Row | Kd [1] [nM] | IC50 [4] [nM] | Compound | NRAS/KRAS (ratio of KD value for NRAS to KD value for KRAS) [2] | HRAS/KRAS (ratio of KD value for HRAS to KD value for KRAS) [3]
9 | 0.11 | 8.6 | CCCOC[C@H]1C(=O)N[C@@H]([C@@H](C)CC)C(=O)N(C)CC(=O)N(C)[C@H]2C/C=C\CCN(C2=O)[C@@H](Cc2ccc(C)cc2)C(=O)N(C)CC(=O)N[C@@H](CCc2ccc(C(F)(F)F)c(OC)c2)C(=O)N2C[C@@H](C)C[C@H]2C(=O)NC2(CC(C)(C)C2)C(=O)N(C)[C@@H](C2CCCC2)C(=O)N(C)[C@H](C(=O)N(C)C)CC(=O)N1C [PP2447] | A (a compound having 10 or more and less than 20 is denoted as A) | B (a compound having 3 or more and less than 10 is denoted as B)
10 | 1.4 | 26.9 | CCC(CC)[C@H]1C(=O)N(C)[C@H](C(=O)N(C)C)CC(=O)N(C)[C@@H](COC)C(=O)N[C@@H]([C@@H](C)CC)C(=O)N(C)CC(=O)N(C)[C@H]2C/C=C\CCN(C2=O)[C@@H](CC2CCC(F)(F)CC2)C(=O)N(C)CC(=O)N[C@@H](CCc2cc(F)c(C(F)(F)F)c(F)c2)C(=O)N2C[C@@H](C)C[C@H]2C(=O)NC2(CC(C)(C)C2)C(=O)N1C [PP2448] | A (a compound having 10 or more and less than 20 is denoted as A) | A (a compound having 10 or more and less than 20 is denoted as A)
11 | 0.061 | 7.8 | CCCOC[C@H]1C(=O)N[C@@H]([C@@H](C)CC)C(=O)N(C)CC(=O)N(C)[C@H]2C/C=C\CCN(C2=O)[C@@H](Cc2ccc(C)cc2)C(=O)N(C)CC(=O)N[C@@H](CCc2ccc(C(F)(F)F)c(OC)c2)C(=O)N2C[C@H](OCC)C[C@H]2C(=O)NC2(CC(C)(C)C2)C(=O)N(C)[C@@H](C2CCCC2)C(=O)N(C)[C@H](C(=O)N(C)C)CC(=O)N1C [PP2449] | A (a compound having 10 or more and less than 20 is denoted as A) | A (a compound having 10 or more and less than 20 is denoted as A)
12 | 0.55 | 29.2 | CCOC[C@H]1C(=O)N[C@@H]([C@@H](C)CC)C(=O)N(C)CC(=O)N(C)[C@H]2C/C=C\CCN(C2=O)[C@@H](CC2CCC(F)(F)CC2)C(=O)N(C)CC(=O)N[C@@H](CCc2cc(F)c(C(F)(F)F)c(F)c2)C(=O)N2C[C@H](OCC)C[C@H]2C(=O)NC2(CC(C)(C)C2)C(=O)N(C)[C@@H](C(CC)CC)C(=O)N(C)[C@H](C(=O)N(C)C)CC(=O)N1C [PP2450] | A (a compound having 10 or more and less than 20 is denoted as A) | A (a compound having 10 or more and less than 20 is denoted as A)
13 | 0.17 | 8.6 | CCOC[C@H]1C(=O)N[C@@H]([C@@H](C)CC)C(=O)N(C)CC(=O)N(C)[C@H]2C/C=C\CCN(C2=O)[C@@H](Cc2ccc(C)cc2)C(=O)N(C)CC(=O)N[C@@H](CCc2ccc(C(F)(F)F)c(Cl)c2)C(=O)N2C[C@@H](C)C[C@H]2C(=O)NC2(CC(C)(C)C2)C(=O)N(C)[C@@H](C2CCCC2)C(=O)N(C)[C@H](C(=O)N(C)CC)CC(=O)N1C [PP2451] | A (a compound having 10 or more and less than 20 is denoted as A) | A (a compound having 10 or more and less than 20 is denoted as A)
14 | 1.5 | 43.4 | CCO[C@@H]1C[C@H]2C(=O)NC3(CC(C)(C)C3)C(=O)N(C)[C@@H](C(CC)CC)C(=O)N(C)[C@H](C(=O)N(C)C)CC(=O)N(C)[C@@H](COC)C(=O)N[C@@H]([C@@H](C)CC)C(=O)N(C)CC(=O)N(C)[C@H]3C/C=C\CCN(C3=O)[C@@H](CC3CCCCC3)C(=O)N(C)CC(=O)N[C@@H](CCc3ccc(C(F)(F)F)c(OC)c3)C(=O)N2C1 [PP2452] | A (a compound having 10 or more and less than 20 is denoted as A) | A (a compound having 10 or more and less than 20 is denoted as A)
15 | 0.09 | 9.2 | CCCOC[C@H]1C(=O)N[C@@H]([C@@H](C)CC)C(=O)N(C)CC(=O)N(C)[C@H]2C/C=C\CCN(C2=O)[C@@H](Cc2ccc(C)cc2)C(=O)N(C)CC(=O)N[C@@H](CCc2ccc(C(F)(F)F)c(Cl)c2)C(=O)N2C[C@@H](C)C[C@H]2C(=O)NC2(CC(C)(C)C2)C(=O)N(C)[C@@H](C2CCCC2)C(=O)N(C)[C@H](C(=O)N(C)C)CC(=O)N1C [PP2453] | A (a compound having 10 or more and less than 20 is denoted as A) | A (a compound having 10 or more and less than 20 is denoted as A)
